Patent publication US20250171461A1, “STIMULATOR OF INTERFERON GENES (STING) MODULATORS, AND COMPOSITIONS AND METHODS THEREOF” (Geode Therapeutics Inc., priority 2022, published 2025)

biological target: T1, human HAQ STING isoform (hSTING HAQ) (Homo sapiens, UniProt Q86WV6, G230A/H232R/R293Q/R71H); test: IFN-β mRNA level in THP1 cells (qPCR, STING agonist cellular activity); type: cell-based; details: compound at 3.6 μM, 2 hrs, IFNβ expression normalized against GAPDH by the 2^-ΔΔCT method, DMSO = 1.0
T1 construct: THP1 cells express the naturally occurring human HAQ STING isoform (hSTING HAQ); host or cells: THP1
T1 sequence (Q86WV6 whole entry R71H/G230A/H232R/R293Q, canonical isoform): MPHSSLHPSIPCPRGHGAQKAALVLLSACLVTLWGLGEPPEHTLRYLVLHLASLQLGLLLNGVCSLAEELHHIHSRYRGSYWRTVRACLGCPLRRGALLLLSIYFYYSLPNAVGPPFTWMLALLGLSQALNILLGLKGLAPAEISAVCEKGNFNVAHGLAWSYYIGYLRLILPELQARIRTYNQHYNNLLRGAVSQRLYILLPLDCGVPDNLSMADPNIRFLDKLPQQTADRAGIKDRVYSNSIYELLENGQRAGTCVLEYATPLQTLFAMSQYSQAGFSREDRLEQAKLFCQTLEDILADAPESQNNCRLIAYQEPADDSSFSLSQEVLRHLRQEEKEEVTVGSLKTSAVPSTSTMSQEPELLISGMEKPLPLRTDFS
In short: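 THP1 cells were seeded at 9×10^5 per well, incubated overnight, then treated with compound at 3.6 μM final (0.1% DMSO control) for 2 hrs at 37 °C. IFN-β mRNA was measured by SYBR Green qPCR, normalised to GAPDH by the 2^−ΔΔCT method, in triplicate.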

SMILES	Relative mRNA INFβ/GAPDH THP 1
COc1cc(CN(Cc2cn3c4c(c(N5CC6(CCN(C)CC6)C5)c(F)cc4c2=O)OCC3C)[C@H]2CCCN(c3ccc(N)nc3)C2)ccn1 (stereo partly drawn) [Compound 45, 6-((((S)-1-(6-aminopyridin-3-yl)piperidin-3-yl)((2-methoxypyridin-4-yl)methyl)amino)methyl)-9-fluoro-3-methyl-10-(7-methyl-2,7-diazaspiro[3.5]nonan-2-yl)-2H-[1,4]oxazino[2,3,4-ij]quinolin-7(3H)-one]	595.1
COc1cc(CN(Cc2cn3c4c(c(N5CC6CC(F)(F)CC6C5)c(F)cc4c2=O)OCC3C)[C@H]2CCCN(c3ccc(N)nc3)C2)ccn1 (stereo partly drawn) [Compound 46, 6-((((S)-1-(6-aminopyridin-3-yl)piperidin-3-yl)((2-methoxypyridin-4-yl)methyl)amino)methyl)-10-(5,5-difluorohexahydrocyclopenta[c]pyrrol-2(1H)-yl)-9-fluoro-3-methyl-2H-[1,4]oxazino[2,3,4-ij]quinolin-7(3H)-one]	691.4
COc1cc(CN(Cc2cn3c4c(c(F)c(F)cc4c2=O)OCCC3)[C@H]2CCCN(c3ccc(N)nc3)C2)ccn1 [Compound 47, (S)-7-(((1-(6-aminopyridin-3-yl)piperidin-3-yl)((2-methoxypyridin-4-yl)methyl)amino)methyl)-10,11-difluoro-3,4-dihydro-[1,4]oxazepino[2,3,4-ij]quinolin-8(2H)-one]	710.4
COc1cc(CN(Cc2cn3c4c(c(F)c(F)cc4c2=O)OCC3(C)C)[C@H]2CCCN(c3ccc(N)nc3)C2)ccn1 [Compound 48, (S)-6-(((1-(6-aminopyridin-3-yl)piperidin-3-yl)((2-methoxypyridin-4-yl)methyl)amino)methyl)-9,10-difluoro-3,3-dimethyl-2H-[1,4]oxazino[2,3,4-ij]quinolin-7(3H)-one]	1202.3
COc1cc(CN(Cc2cn3c4c(c(F)c(F)cc4c2=O)OC2(CCC2)C3)[C@H]2CCCN(c3ccc(N)nc3)C2)ccn1 [Compound 49, (S)-6-(((1-(6-aminopyridin-3-yl)piperidin-3-yl)((2-methoxypyridin-4-yl)methyl)amino)methyl)-9,10-difluorospiro[[1,4]oxazino[2,3,4-ij]quinoline-2,1′-cyclobutan]-7(3H)-one]	5276.2
COc1cc(CN(Cc2cn3c4c(c(F)c(F)cc4c2=O)OC(C)(C)C3)[C@H]2CCCN(c3ccc(N)nc3)C2)ccn1 [Compound 50, (S)-6-(((1-(6-aminopyridin-3-yl)piperidin-3-yl)((2-methoxypyridin-4-yl)methyl)amino)methyl)-9,10-difluoro-2,2-dimethyl-2H-[1,4]oxazino[2,3,4-ij]quinolin-7(3H)-one]	6723.5
COc1cc(CN(Cc2cn3c4c(c(F)c(F)cc4c2=O)OC(C)C3)[C@H]2CCCN(c3ccc(N)nc3)C2)ccn1 (stereo partly drawn) [Compound 51, 6-((((S)-1-(6-aminopyridin-3-yl)piperidin-3-yl)((2-methoxypyridin-4-yl)methyl)amino)methyl)-9,10-difluoro-2-methyl-2H-[1,4]oxazino[2,3,4-ij]quinolin-7(3H)-one]	7257.8
COc1cc(CN(Cc2cn3c4c(cc(F)c(F)c4c2=O)OCC3C)[C@H]2CCCN(c3ccc(N)nc3)C2)ccn1 (stereo partly drawn) [Compound 52, 6-((((S)-1-(6-aminopyridin-3-yl)piperidin-3-yl)((2-methoxypyridin-4-yl)methyl)amino)methyl)-8,9-difluoro-3-methyl-2H-[1,4]oxazino[2,3,4-ij]quinolin-7(3H)-one]	178.2
COc1cc(CN(Cc2cn3c4c(c(F)c(F)cc4c2=O)OCC3C)[C@H]2CCCN(c3cnc4[nH]ncc4c3)C2)ccn1 (stereo partly drawn) [Compound 54, 6-((((S)-1-(1H-pyrazolo[3,4-b]pyridin-5-yl)piperidin-3-yl)((2-methoxypyridin-4-yl)methyl)amino)methyl)-9,10-difluoro-3-methyl-2H-[1,4]oxazino[2,3,4-ij]quinolin-7(3H)-one]	3.9
COc1cc(CN(Cc2cn3c4c(c(Br)c(F)cc4c2=O)OCC3C)[C@H]2CCCN(c3ccc(N)nc3)C2)ccn1 (stereo partly drawn) [Compound 55, 6-((((S)-1-(6-aminopyridin-3-yl)piperidin-3-yl)((2-methoxypyridin-4-yl)methyl)amino)methyl)-10-bromo-9-fluoro-3-methyl-2H-[1,4]oxazino[2,3,4-ij]quinolin-7(3H)-one]	655.0
COc1cc(CN(Cc2cn3c4c(c(-c5ccncc5)c(F)cc4c2=O)OCC3C)[C@H]2CCCN(c3ccc(N)nc3)C2)ccn1 (stereo partly drawn) [Compound 56, 6-((((S)-1-(6-aminopyridin-3-yl)piperidin-3-yl)((2-methoxypyridin-4-yl)methyl)amino)methyl)-9-fluoro-3-methyl-10-(pyridin-4-yl)-2H-[1,4]oxazino[2,3,4-ij]quinolin-7(3H)-one]	366.2
COc1cc(CN(Cc2cn3c4c(c(C)c(F)cc4c2=O)OCC3C)[C@H]2CCCN(c3ccc(N)nc3)C2)ccn1 (stereo partly drawn) [Compound 57, 6-((((S)-1-(6-aminopyridin-3-yl)piperidin-3-yl)((2-methoxypyridin-4-yl)methyl)amino)methyl)-9-fluoro-3,10-dimethyl-2H-[1,4]oxazino[2,3,4-ij]quinolin-7(3H)-one]	580.9
COc1cc(CN(Cc2cn3c4c(c(-c5ccc(CCO)cn5)c(F)cc4c2=O)OCC3C)[C@H]2CCCN(c3ccc(N)nc3)C2)ccn1 (stereo partly drawn) [Compound 64, 6-((((S)-1-(6-aminopyridin-3-yl)piperidin-3-yl)((2-methoxypyridin-4-yl)methyl)amino)methyl)-9-fluoro-10-(5-(2-hydroxyethyl)pyridin-2-yl)-3-methyl-2H-[1,4]oxazino[2,3,4-ij]quinolin-7(3H)-one]	26.6

Second part, the compound after the results:

Relative mRNA INFβ/GAPDH THP 1	SMILES
688.4	COc1cc(CN(Cc2cn3c4c(c(C5=CCSCC5)c(F)cc4c2=O)OCC3C)[C@H]2CCCN(c3ccc(N)nc3)C2)ccn1 (stereo partly drawn) [Compound 58, 6-((((S)-1-(6-aminopyridin-3-yl)piperidin-3-yl)((2-methoxypyridin-4-yl)methyl)amino)methyl)-10-(3,6-dihydro-2H-thiopyran-4-yl)-9-fluoro-3-methyl-2H-[1,4]oxazino[2,3,4-ij]quinolin-7(3H)-one]
316.7	COc1cc(CN(Cc2cn3c4c(c(C5=CCN(C6CC6)CC5)c(F)cc4c2=O)OCC3C)[C@H]2CCCN(c3ccc(N)nc3)C2)ccn1 (stereo partly drawn) [Compound 59, 6-((((S)-1-(6-aminopyridin-3-yl)piperidin-3-yl)((2-methoxypyridin-4-yl)methyl)amino)methyl)-10-(1-cyclopropyl-1,2,3,6-tetrahydropyridin-4-yl)-9-fluoro-3-methyl-2H-[1,4]oxazino[2,3,4-ij]quinolin-7(3H)-one]
174.3	COc1cc(CN(Cc2cn3c4c(c(N5CCCCC5=O)c(F)cc4c2=O)OCC3C)[C@H]2CCCN(c3ccc(N)nc3)C2)ccn1 (stereo partly drawn) [Compound 60, 6-((((S)-1-(6-aminopyridin-3-yl)piperidin-3-yl)((2-methoxypyridin-4-yl)methyl)amino)methyl)-9-fluoro-3-methyl-10-(2-oxopiperidin-1-yl)-2H-[1,4]oxazino[2,3,4-ij]quinolin-7(3H)-one]
0.7	COc1cc(CN(Cc2cn3c4c(c(N5CCCCC5=O)c(F)cc4c2=O)OCC3C)[C@H]2CCCN(c3ccc(N)nc3)C2)ccn1 (stereo partly drawn) [Compound 61, 6-((((S)-1-(6-aminopyridin-3-yl)piperidin-3-yl)((2-methoxypyridin-4-yl)methyl)amino)methyl)-9-fluoro-3-methyl-10-(2-oxopiperidin-1-yl)-2H-[1,4]oxazino[2,3,4-ij]quinolin-7(3H)-one]
915.2	COc1cc(CN(Cc2cn3c4c(c(OCc5ccccc5)c(F)cc4c2=O)OCC3C)[C@H]2CCCN(c3ccc(N)nc3)C2)ccn1 (stereo partly drawn) [Compound 62, 6-((((S)-1-(6-aminopyridin-3-yl)piperidin-3-yl)((2-methoxypyridin-4-yl)methyl)amino)methyl)-10-(benzyloxy)-9-fluoro-3-methyl-2H-[1,4]oxazino[2,3,4-ij]quinolin-7(3H)-one]
2.5	COc1cc(CN(Cc2cn3c4c(c(O)c(F)cc4c2=O)OCC3C)[C@H]2CCCN(c3ccc(N)nc3)C2)ccn1 (stereo partly drawn) [Compound 63, 6-((((S)-1-(6-aminopyridin-3-yl)piperidin-3-yl)((2-methoxypyridin-4-yl)methyl)amino)methyl)-9-fluoro-10-hydroxy-3-methyl-2H-[1,4]oxazino[2,3,4-ij]quinolin-7(3H)-one]
7.4	COc1cc(CN(Cc2cn3c4c(c(F)c(F)cc4c2=O)OCC3)[C@H]2CCCN(c3ccc([N+](=O)[O-])nc3)C2)ccn1 [Compound 65, (S)-9,10-difluoro-6-((((2-methoxypyridin-4-yl)methyl)(1-(6-nitropyridin-3-yl)piperidin-3-yl)amino)methyl)-2,3-dihydro-7H-[1,4]oxazino[2,3,4-ij]quinolin-7-one]
6236.9	Nc1ccc(N2CCC[C@H](N(Cc3ccncc3)Cc3cn4c5c(c(F)c(F)cc5c3=O)OCC4)C2)cn1 [Compound 70, (S)-6-(((1-(6-aminopyridin-3-yl)piperidin-3-yl)(pyridin-4-ylmethyl)amino)methyl)-9,10-difluoro-2,3-dihydro-7H-[1,4]oxazino[2,3,4-ij]quinolin-7-one]
6763.7	Cc1cc(CN(Cc2cn3c4c(c(F)c(F)cc4c2=O)OCC3)[C@H]2CCCN(c3ccc(N)nc3)C2)ccn1 [Compound 71, (S)-6-(((1-(6-aminopyridin-3-yl)piperidin-3-yl)((2-methylpyridin-4-yl)methyl)amino)methyl)-9,10-difluoro-2,3-dihydro-7H-[1,4]oxazino[2,3,4-ij]quinolin-7-one]
